# In ChEMBL document CHEMBL1201862, “PubChem BioAssay data set” (2004):
#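 48-hour exposure; five concentrations; linearly interpolated endpoints. GI50 marks 50% less growth.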 Activity calls are given as the source filed them. No stated cut-off is given here; in the data, active = GI50 up to about 1.1 µM and inactive = higher.
# What was measured:
# Assay in all cases: DTP human tumour cell line panel, 48 h
# OVCAR-5 = system: OVCAR-5
# HCT-15 = system: HCT-15
# K562 = system: K562
# HOP-62 = system: HOP-62
# U-251 = system: U-251
# MDA-MB-435 = system: MDA-MB-435
# MCF7 = system: MCF7
# TK-10 = system: TK-10
# NCI-H460 = system: NCI-H460
# CAKI-1 = system: CAKI-1
# A498 = system: A498
# OVCAR-4 = system: OVCAR-4
# HCC 2998 = system: HCC 2998
# ACHN = system: ACHN
# IGROV-1 = system: IGROV-1
# NCI-H522 = system: NCI-H522
# RPMI-8226 = system: RPMI-8226
# SK-MEL-2 = system: SK-MEL-2
# NCI-H23 = system: NCI-H23
# HCT-116 = system: HCT-116
# SN12C = system: SN12C
# OVCAR-3 = system: OVCAR-3
# HOP-92 = system: HOP-92
# M14 = system: M14
# SF-295 = system: SF-295
# RXF 393 = system: RXF 393
# UACC-257 = system: UACC-257
# BT-549 = system: BT-549
# T47D = system: T47D
# SF-268 = system: SF-268
# MDA-MB-231 = system: MDA-MB-231
# NCI/ADR-RES = system: NCI/ADR-RES
# Malme-3M = system: Malme-3M
# SK-MEL-28 = system: SK-MEL-28
# UACC-62 = system: UACC-62
# Hs-578T = system: Hs-578T
# OVCAR-8 = system: OVCAR-8
# SNB-19 = system: SNB-19
# SK-OV-3 = system: SK-OV-3
# HL-60 = system: HL-60
# A549 = system: A549
# SW-620 = system: SW-620
# SK-MEL-5 = system: SK-MEL-5
# SNB-75 = system: SNB-75
# KM12 = system: KM12
# SF-539 = system: SF-539
# 786-0 = system: 786-0
# MOLT-4 = system: MOLT-4
# CCRF-CEM = system: CCRF-CEM
# UO-31 = system: UO-31
# DU-145 = system: DU-145
# EKVX = system: EKVX
# LOX IMVI = system: LOX IMVI
# NCI-H226 = system: NCI-H226
# COLO 205 = system: COLO 205
# SR = system: SR
# PC-3 = system: PC-3
# MDA-N = system: MDA-N
# HT-29 = system: HT-29
compound,measurement,setting,value
Fc1ccccc1/N=c1\oc2ccc(Br)cc2cc1-c1nc2ccccc2[nH]1,GI50,OVCAR-5,34.8 µM (inactive)
same,GI50,HCT-15,30.1 µM
same,GI50,K562,> 25.6 µM (inactive)
same,GI50,HOP-62,3.65 µM (inactive)
same,GI50,U-251,6 µM (inactive)
same,GI50,MDA-MB-435,23.1 µM (inactive)
same,GI50,MCF7,14.8 µM (inactive)
same,GI50,TK-10,6.59 µM (inactive)
same,GI50,NCI-H460,15 µM (inactive)
same,GI50,CAKI-1,9.55 µM (inactive)
same,GI50,A498,2.58 µM (inactive)
same,GI50,OVCAR-4,5.96 µM (inactive)
same,GI50,HCC 2998,10.4 µM (inactive)
same,GI50,ACHN,6.9 µM (inactive)
same,GI50,IGROV-1,8.95 µM (inactive)
same,GI50,NCI-H522,1.75 µM (inactive)
same,GI50,RPMI-8226,28 µM (inactive)
same,GI50,SK-MEL-2,8.18 µM (inactive)
same,GI50,NCI-H23,7.33 µM (inactive)
same,GI50,HCT-116,8.61 µM (inactive)
same,GI50,SN12C,16.6 µM (inactive)
same,GI50,OVCAR-3,6.15 µM (inactive)
same,GI50,HOP-92,18 µM (inactive)
same,GI50,M14,11.2 µM (inactive)
same,GI50,SF-295,5.48 µM (inactive)
same,GI50,RXF 393,7.64 µM (inactive)
same,GI50,UACC-257,> 19.8 µM (inactive)
same,GI50,BT-549,7.93 µM (inactive)
same,GI50,T47D,38.3 µM (inactive)
same,GI50,SF-268,0.522 µM (active)
same,GI50,MDA-MB-231,6.7 µM (inactive)
same,GI50,NCI/ADR-RES,10 µM (inactive)
same,GI50,Malme-3M,2.32 µM (inactive)
same,GI50,SK-MEL-28,14.5 µM (inactive)
same,GI50,UACC-62,12.8 µM (inactive)
same,GI50,Hs-578T,0.485 µM (active)
same,GI50,OVCAR-8,9.23 µM (inactive)
same,GI50,SNB-19,4.26 µM (inactive)
same,GI50,SK-OV-3,10.7 µM (inactive)
same,GI50,HL-60,> 100 µM (inactive)
same,GI50,A549,7.01 µM (inactive)
same,GI50,SW-620,> 21.9 µM (inactive)
same,GI50,SK-MEL-5,8.49 µM (inactive)
same,GI50,SNB-75,1.84 µM (inactive)
same,GI50,KM12,> 20.7 µM (inactive)
same,GI50,SF-539,1.87 µM (inactive)
same,GI50,786-0,3.18 µM (inactive)
same,GI50,MOLT-4,> 30.8 µM (inactive)
same,GI50,CCRF-CEM,> 100 µM (inactive)
same,GI50,UO-31,8.04 µM (inactive)
same,GI50,DU-145,17.1 µM (inactive)
same,GI50,EKVX,9.29 µM (inactive)
same,GI50,LOX IMVI,13.2 µM (inactive)
same,GI50,NCI-H226,4.26 µM (inactive)
same,GI50,COLO 205,35.6 µM (inactive)
same,GI50,SR,> 25.6 µM (inactive)
same,GI50,PC-3,7.4 µM (inactive)
Nc1ccc(-c2nc3ccccc3s2)cc1Cl,GI50,OVCAR-5,0.0259 µM (active)
same,GI50,HCT-15,> 48.8 µM
same,GI50,K562,66.7 µM (inactive)
same,GI50,HOP-62,18.8 µM (inactive)
same,GI50,U-251,58.2 µM (inactive)
same,GI50,MDA-MB-435,> 100 µM (inactive)
same,GI50,MCF7,< 0.01 µM (active)
same,GI50,TK-10,< 0.01 µM (active)
same,GI50,CAKI-1,> 93.3 µM (inactive)
same,GI50,A498,0.223 µM (active)
same,GI50,OVCAR-4,> 100 µM (inactive)
same,GI50,HCC 2998,> 64.3 µM (inactive)
same,GI50,ACHN,> 100 µM (inactive)
same,GI50,IGROV-1,< 0.01 µM (active)
same,GI50,NCI-H522,98.6 µM (inactive)
same,GI50,RPMI-8226,36.1 µM (inactive)
same,GI50,SK-MEL-2,> 100 µM (inactive)
same,GI50,NCI-H23,69.3 µM (inactive)
same,GI50,HCT-116,> 100 µM (inactive)
same,GI50,SN12C,> 100 µM (inactive)
same,GI50,OVCAR-3,< 0.01 µM (active)
same,GI50,HOP-92,> 44.5 µM (inactive)
same,GI50,M14,> 100 µM (inactive)
same,GI50,SF-295,53.5 µM (inactive)
same,GI50,RXF 393,> 39.8 µM (inactive)
same,GI50,UACC-257,> 100 µM (inactive)
same,GI50,MDA-N,> 100 µM (inactive)
same,GI50,BT-549,> 66.4 µM (inactive)
same,GI50,SF-268,67 µM (inactive)
same,GI50,MDA-MB-231,> 92.9 µM (inactive)
same,GI50,NCI/ADR-RES,> 100 µM (inactive)
same,GI50,Malme-3M,> 100 µM (inactive)
same,GI50,SK-MEL-28,> 100 µM (inactive)
same,GI50,UACC-62,> 100 µM (inactive)
same,GI50,Hs-578T,56 µM (inactive)
same,GI50,OVCAR-8,> 100 µM (inactive)
same,GI50,HT-29,> 100 µM (inactive)
same,GI50,SNB-19,> 70.8 µM (inactive)
same,GI50,SK-OV-3,> 73.8 µM (inactive)
same,GI50,HL-60,> 92.3 µM (inactive)
same,GI50,A549,> 87.1 µM (inactive)
same,GI50,SW-620,> 100 µM (inactive)
same,GI50,SK-MEL-5,> 87.3 µM (inactive)
same,GI50,SNB-75,16.6 µM (inactive)
same,GI50,KM12,40.3 µM (inactive)
same,GI50,SF-539,77.6 µM (inactive)
same,GI50,786-0,74 µM (inactive)
same,GI50,MOLT-4,16.3 µM (inactive)
same,GI50,CCRF-CEM,10.2 µM (inactive)
same,GI50,UO-31,23.3 µM (inactive)
same,GI50,DU-145,> 100 µM (inactive)
same,GI50,EKVX,25.2 µM (inactive)
same,GI50,LOX IMVI,46.8 µM (inactive)
same,GI50,NCI-H226,0.571 µM (active)
same,GI50,COLO 205,> 56.2 µM (inactive)
same,GI50,SR,> 100 µM (inactive)
same,GI50,PC-3,> 73.6 µM (inactive)
